“And” between values parts separate entries of the source, which are not always exact repeats. Identical values can stand only once. “Also recorded” adds a separate entry of the source.
Assays:
[1] = tested on: primary mouse hepatocytes; experiment: RNA-Seq gene expression in primary mouse hepatocytes treated with kinase inhibitors; settings: 10 μM, 72 hours
Text: The next step was to determine if the PI3/Akt and MAPK pathways are involved in maintenance of hepatocyte maturation. We investigated whether small molecule inhibition of these pathways would mimic let-7's action and reduce the loss of mature function of hepatocytes in culture after removal from their microenvironment. […] Then, expression of the top ten important metabolic enzymes (CYPs, UGTs and transporters) by RNA-Seq with uncultured fresh hepatocytes and control vehicle hepatocytes treated for 72 hours was compared.
Hepatocytes from 6 black mice livers were isolated by perfusion following standard protocol and cultured on Matrigel coated plates in hepatocyte growth medium (Promocell). Whole developing livers from 6 black mice were used for RNA isolation with Trizol for let-7c measurements.
(§1) Total RNA (including microRNA) from all cells, which were not mentioned otherwise, were isolated using RNAeasy Plus Kit […] following manufacturers protocol. RNA-Seq was performed by LM-Seq (Illumina). MicroRNAs were sequenced using Illumina's small RNA sequencing kit. Expression of let-7 and U6 snoRNA were measured by quantitative PCR using ABI's kit. Let-7c expression levels were normalized by U6 snoRNA expression (RQ or relative quantity values, error bars representing standard error, RQ min and RQ max).
Multiple batches of cryopreserved induction qualified human hepatocytes (each batch being from one donor) were purchased from Life Technologies and cultured on Matrigel coated plates in hepatocyte growth medium (PromoCell). For dedifferentiation studies, hepatocytes from batches Hu4260, Hu8135, Hu4279 and Hu8137 were used after mixing equal number of live cells. For small molecule treatments, batch Hu4260 was used. Mouse hepatocytes were isolated from Black 6 mice livers by perfusion following standard protocol and cultured on Matrigel coated plates in hepatocyte growth medium (Promocell).
(§2) Total RNA were isolated using RNAeasy Plus Kit (Qiagen) following manufacturers protocol and qualified with the Life Technologies Qubit fluorometer and Agilent Bioanalyzer. […] Final indexed cDNA libraries were pooled and sequenced on an Illumina HiSeq 2500. Base-calling and demultiplexing were performed using Casava (v1.8.2). Sequences were filtered and trimmed to remove low quality reads, adapters, and other sequencing artifacts. The remaining reads were aligned to a reference database comprising only RefSeq-validated transcripts (i.e., assigned an “NM_” accession). Mouse samples were aligned to the mm10 assembly, and human samples were aligned to the hg19 assembly. […] Reads with more than 200 alignments were excluded from further analysis. […] All RNA-seq results have been deposited at NCBI's GEO under Accession No. GSE94353.
The inventors next investigated whether the MAPK and PI3/Akt pathways contributed to the dedifferentiation of hepatocytes. […] Rapamycin was included as a control, which is an inhibitor of the mTOR pathway, a serine/threonine kinase involved in cell signaling not identified as a key pathway in our analysis.

[2] = tested on: HepG2 cells
Protocol: Both types of cells were treated with a vehicle or small molecule for 72 hours and genes were quantified using RNA-Seq.
as §1, §2
(§3) To test whether the upregulation of metabolic genes at the mRNA level translated into functional metabolic improvement, acetaminophen (APAP) metabolism was assessed by LC/MS/MS.

[3] = tested on: primary human hepatocytes (PHHs); experiment: RNA-Seq gene expression in MAPK inhibitor treated primary human hepatocytes; format: cell-based
Protocol: […]. […] […].
For small RNA-Seq profiling, hepatocytes from Hu8082 were used; for de-differentiation time course and let-7c transduction, hepatocytes from Hu4260, Hu8135, Hu4279 and Hu8137 were used. For both experiments, cells from all 4 donors were mixed in equal numbers after assessment of viability. For small molecule treatments, batch Hu4260 was used.
RNA-Seq was performed by LM-Seq (Illumina).
For small molecule treatments, batch Hu4260 was used.
. To ascertain that the increase in metabolic enzymes took place through specific MAPK inhibition, PHHs were treated with a second MAPK inhibitor, PD0325901, for 72 hours, followed by RNA-Seq analysis (Supplementary Table 4). […].

[4] = tested on: CYP2C9; settings: HepG2, treated 72 hours
Protocol: (§4) CYP2C9 and 3A4 metabolism were measured using CYP450 Glo assay (Promega). In short, substrates were added to the media and incubated for 72 hours and the amount of metabolites generated were measured by adding the detection reagent and quantifying the luminescence in a Tecan® plate reader. Background was measured by incubating the substrates for 72 hours in the same media without cells. Cell counting for proliferation assay was carried out by dye exclusion in an automated cell counter (ThermoFisher).
CYP2C9 and 3A4 metabolism were measured using CYP450 Glo assay (Promega). Substrates were added to the media and incubated for 72 hours and the amount of metabolite generated were measured by adding the detection reagent and quantifying the luminescence in a Tecan plate reader. Background was measured by incubating the substrates for 72 hours in the same media without cells.

[5] = tested on: HepG2 cells; experiment: HepG2 viability / cell growth (cell counting by dye exclusion); format: cell-based, human; settings: HepG2, 72 hours, compared to vehicle control
Protocol: as §4

[6] = tested on: HepG2 cells; settings: HepG2 treated 72 hours, 10 uM APAP for 1 hour
Text: Samples for LC/MS/MS analysis were processed by solid-phase extraction, and calibrant curves (7 points) for all compounds were generated by spiking standards (Sigma) in E6 media and processed in parallel with samples. An internal standard of deuterated naproxen was included for all analytes. Samples were run on a 0.2×100 mm Cortecs C18 column (Waters Corporation, Milford Mass.) using a Waters Acquity UPLC system coupled to an AB/Sciex Q-Trap 5500 hybrid triple quadrupole instrument (Framingham Mass.). Analytes were detected using multiple-reaction-monitoring with three transitions for each compound being monitored. Each sample was analyzed in triplicate with blanks between each sample analysis. Quantitation was based on area under the curve of the analyte relative to the internal standard and was modeled with a quadratic fit with 1/× weighting using the MultiQuant software (Sciex, Framingham Mass.). […] Average calculated concentrations for each analyte are reported. […] Background was determined by measuring metabolites in media incubated with acetaminophen only for 1 hour and any samples below background were considered nil.
as §3

[7] = tested on: ALB-GFP/tdTomato-AFP marker cell line; settings: marker line differentiated with TGFB and NOTCH inhibition in E6, then treated 72 hours
Text: We next differentiated the ALB-GFP/tdTomato-AFP marker cell line to hepatocytes with TGFB and NOTCH inhibition in defined E6 medium.

[8] = primary human hepatocytes, treated 72 hours

N#CC(=C(/N)Sc1ccccc1N)/C(C#N)=C(\N)Sc1ccccc1N [U0126]
ABCC2 gene expression [1]: 415.86 transcripts per million
CYP1A2 gene expression [1]: 1271.98 transcripts per million
CYP2C9 gene expression [1]: 2676.68 transcripts per million
CYP2E1 gene expression [1]: 217.96 transcripts per million
CYP3A11 gene expression [1]: 632.32 transcripts per million
CYP3A25 gene expression [1]: 112.18 transcripts per million
UGT1A6A gene expression [1]: 232.80 transcripts per million
UGT1A9 gene expression [1]: 184.63 transcripts per million
UGT1A10 gene expression [1]: 2.44 transcripts per million
UGT2B5 gene expression [1]: 995.27 transcripts per million
downregulation of fetal gene AFP compared with untreated control ([2]; HepG2, 72 hours): over 3 orders of magnitude
AFP gene expression ([2]; HepG2, treated 72 hours): 4.74 transcripts per million
ALB gene expression ([2]; HepG2, treated 72 hours): 2083.6 transcripts per million
CD81 gene expression ([2]; HepG2, treated 72 hours): 634.68 transcripts per million
CYP1A2 gene expression ([2]; HepG2, treated 72 hours): 0.68 transcripts per million
CYP1B1 gene expression ([2]; HepG2, treated 72 hours): 3.07 transcripts per million
CYP2C9 gene expression ([2]; HepG2, treated 72 hours): 33.45 transcripts per million
CYP2D6 gene expression ([2]; HepG2, treated 72 hours): 4.05 transcripts per million
CYP2E1 gene expression ([2]; HepG2, treated 72 hours): 14.61 transcripts per million
CYP3A4 gene expression ([2]; HepG2, treated 72 hours): 13.37 transcripts per million
SLC10A1 gene expression ([2]; HepG2, treated 72 hours): 10.57 transcripts per million
SLCO1B1 gene expression ([2]; HepG2, treated 72 hours): 120.17 transcripts per million
SLCO1B3 gene expression ([2]; HepG2, treated 72 hours): 18.83 transcripts per million
UGT1A1 gene expression ([2]; HepG2, treated 72 hours): 16.61 transcripts per million
UGT1A6 gene expression ([2]; HepG2, treated 72 hours): 835.05 transcripts per million
UGT1A9 gene expression ([2]; HepG2, treated 72 hours): 99.71 transcripts per million
expression of hepatic nuclear receptors (CAR, FXR, LXR, PPAR, PXR, RAR), change >3-fold ([2]; HepG2 cells): did not significantly change
expression of hepatic nuclear receptors (CAR, FXR, LXR, PPAR, PXR, RAR), change >3-fold ([3]; PHHs): did not significantly change
AFP gene expression [3, 8]: 5.79 transcripts per million
ALB gene expression [3, 8]: 1360.25 transcripts per million
CD81 gene expression [3, 8]: 417.56 transcripts per million
CYP1A2 gene expression [3, 8]: 68.21 transcripts per million
CYP1B1 gene expression [3, 8]: 30.96 transcripts per million
CYP2C9 gene expression [3, 8]: 77.04 transcripts per million
CYP2D6 gene expression [3, 8]: 1.81 transcripts per million
CYP2E1 gene expression [3, 8]: 17.69 transcripts per million
CYP3A4 gene expression [3, 8]: 43.64 transcripts per million
SLC10A1 gene expression [3, 8]: 0.00 transcripts per million
SLCO1B1 gene expression [3, 8]: 153.15 transcripts per million
SLCO1B3 gene expression [3, 8]: 14.65 transcripts per million
UGT1A1 gene expression [3, 8]: 47.57 transcripts per million
UGT1A6 gene expression [3, 8]: 671.53 transcripts per million
UGT1A9 gene expression [3, 8]: 81.41 transcripts per million
CYP2C9 activity (luminescent metabolite formation), increase over vehicle control [4]: > 10 fold and 10 fold
HepG2 viability / cell growth [5]: significant inhibition of cell growth; also recorded: increased cell death and growth arrest
formation of APAP-glucuronide [6]: induced the formation
formation of APAP-glutathione [6]: induced the formation
formation of APAP-sulphate [6]: increased formation
rate of formation of all APAP metabolites versus PHHs [6]: comparable rate to mature adult PHHs
cells expressing both ALB and AFP [7]: 100%
